Measured values published in US20150246093A1, “ORAL FORMULATIONS OF ANGIOTENSIN” (TARIX PHARMACEUTICALS LTD., priority 2012, published 2015).
Read-outs that look alike come from different tables or passages of the source.

Test: Pharmacokinetics after intra-duodenal injection (ID) in anesthetized rats, model mimicking enteric-coated oral dosage form, plasma LC-MS
Type: in vivo, rat
Settings: rat, plasma; for Tmax / AUC(0-t) / Cmax / Half-Life: other: intra-duodenal injection (ID); for AUC(0-t): read-out: AUC0-90 (converted); for Cmax: read-out: Cmax; for level at 5 min: time point 5 min; for level at 5 min / level at 10 min / level at 20 min / level at 40 min / level at 1 h / level at 1.5 h: Average, read-out: Angiotensin (1-7) concentration; for level at 10 min: time point 10 min; for level at 20 min: time point 20 min; for level at 40 min: time point 40 min; for level at 1 h: time point 60 min; for level at 1.5 h: time point 90 min
Method: This model mimics the release and absorption expected from an orally delivered enteric coated solid dosage form such as capsule or tablet.
After extraction, the samples were then transferred to ice-cold tubes containing a protease inhibitor cocktail. The samples were kept on ice until they were centrifuged at 4° C. to obtain plasma. The plasma supernatants were then frozen −70° C. until analysis using an LC-MS assay.
The oral delivery of an angiotensin (1-7) peptide (e.g., TXA127) was then evaluated in a rat model that mimics the release of the peptide into the intestine by enteric-coated capsule. Briefly, the duodenums of anesthetized rats were surgically exposed, and an angiotensin (1-7) peptide was delivered through a 27 gauge needle into the duodenum. A baseline was obtained by ID administration of an angiotensin (1-7) in PBS. Samples of blood was removed from the carotid artery before and 5, 10, 20, 40, 60 and 90 minutes after peptide administration. Subsequently, an angiotensin (1-7) peptide was administered ID in 400 mM citrate buffer (pH 3.5) and lauroyl-L-carnitine (LLC) (10 mg/ml), a formulation that mimics the contents of the enteric-coated capsules. In order to maximize the stability of TXA127 in rat circulation, captopril (e.g., 0.5 mg/ml or 5 mg/ml) may be added to the formulations. Blood samples were taken at the same time points as the baseline study and handled as described above for analysis.

[1] = 3 mg, ID 0.3 ml A [10 mg/ml in PBS], Mean PK Values (average of individual PK parameters)
[2] = 3 mg, pH 3.5, ID 0.3 ml B [10 mg/ml, 10 mg/ml LLC, 400 mM Citrate pH 3.5, 150 mM NaCl], Average (PK value of the mean concentrations)
[3] = 3 mg, pH 3.5, ID 0.3 ml B [10 mg/ml, 10 mg/ml LLC, 400 mM Citrate pH 3.5, 150 mM NaCl], Mean PK Values (average of individual PK parameters)
[4] = 3 mg, pH 3.5, ID 0.3 ml C [10 mg/ml, Captopril 0.5 mg/ml, 10 mg/ml LLC, 400 mM Citrate pH 3.5, 150 mM NaCl], Average (PK value of the mean concentrations)
[5] = 3 mg, pH 3.5, ID 0.3 ml C [10 mg/ml, Captopril 0.5 mg/ml, 10 mg/ml LLC, 400 mM Citrate pH 3.5, 150 mM NaCl], Mean PK Values (average of individual PK parameters)
[6] = 3 mg, pH 3.5, ID 0.3 ml C [10 mg/ml, Captopril 5 mg/ml, 10 mg/ml LLC, 400 mM Citrate pH 3.5, 150 mM NaCl], Average (PK value of the mean concentrations)
[7] = 3 mg, pH 3.5, ID 0.3 ml C [10 mg/ml, Captopril 5 mg/ml, 10 mg/ml LLC, 400 mM Citrate pH 3.5, 150 mM NaCl], Mean PK Value (average of individual PK parameters)
[8] = pH 3.5, ID 0.3 ml C [10 mg/ml, Captopril 0.5 mg/ml, 10 mg/ml LLC, 400 mM Citrate pH 3.5, 150 mM NaCl]
[9] = pH 3.5, ID 0.3 ml C [10 mg/ml, Captopril 5 mg/ml, 10 mg/ml LLC, 400 mM Citrate pH 3.5, 150 mM NaCl]

- Tmax (3 mg, ID 0.3 ml A [10 mg/ml in PBS], Average (PK value of the mean concentrations), read-out: Tmax (converted)): 60 min
- AUC(0-t) [1]: 6.72 ng·h/mL
- Cmax [1]: 7.5 ng/mL
- Half-Life (3 mg, ID 0.3 ml A [10 mg/ml in PBS], Mean PK Values (average of individual PK parameters), read-out: Half-Life): 38.9 min
- Tmax (3 mg, ID 0.3 ml A [10 mg/ml in PBS], Mean PK Values (average of individual PK parameters), read-out: Tmax (converted)): 46 min
- Half-Life (3 mg, ID, 0.3 mL of 10 mg/mL A(1-7) formulated in PBS, 6 rats, range over the group, read-out: Half-lives): 7 to 140 min
- Tmax (3 mg, ID, 0.3 mL of 10 mg/mL A(1-7) formulated in PBS, 6 rats, range over the group, read-out: Tmax after administration): 10 to 60 min
- AUC(0-t) [2]: 71.2 ng·h/mL
- Cmax [2]: 416 ng/mL
- Half-Life (3 mg, pH 3.5, ID 0.3 ml B [10 mg/ml, 10 mg/ml LLC, 400 mM Citrate pH 3.5, 150 mM NaCl], Average (PK value of the mean concentrations), read-out: Half-Life): 13 min
- Tmax (3 mg, pH 3.5, ID 0.3 ml B [10 mg/ml, 10 mg/ml LLC, 400 mM Citrate pH 3.5, 150 mM NaCl], Average (PK value of the mean concentrations), read-out: Tmax (converted)): 5 min
- AUC(0-t) [3]: 71.2 ng·h/mL
- Cmax [3]: 419 ng/mL
- Half-Life (3 mg, pH 3.5, ID 0.3 ml B [10 mg/ml, 10 mg/ml LLC, 400 mM Citrate pH 3.5, 150 mM NaCl], Mean PK Values (average of individual PK parameters), read-out: Half-Life): 46.4 min
- Tmax (3 mg, pH 3.5, ID 0.3 ml B [10 mg/ml, 10 mg/ml LLC, 400 mM Citrate pH 3.5, 150 mM NaCl], Mean PK Values (average of individual PK parameters), read-out: Tmax (converted)): 5.8 min
- Tmax (3 mg, pH 3.5, ID 0.3 ml B [10 mg/ml, 10 mg/ml LLC, 400 mM Citrate pH 3.5, 150 mM NaCl], individual rats, read-out: Tmax (converted)): 5 min
- AUC(0-t) [4]: 126 ng·h/mL
- Cmax [4]: 628 ng/mL
- Half-Life (3 mg, pH 3.5, ID 0.3 ml C [10 mg/ml, Captopril 0.5 mg/ml, 10 mg/ml LLC, 400 mM Citrate pH 3.5, 150 mM NaCl], Average (PK value of the mean concentrations), read-out: Half-Life): 14 min
- Tmax (3 mg, pH 3.5, ID 0.3 ml C [10 mg/ml, Captopril 0.5 mg/ml, 10 mg/ml LLC, 400 mM Citrate pH 3.5, 150 mM NaCl], Average (PK value of the mean concentrations), read-out: Tmax (converted)): 5 min
- AUC(0-t) [5]: 119 ng·h/mL
- Cmax [5]: 609 ng/mL
- Half-Life (3 mg, pH 3.5, ID 0.3 ml C [10 mg/ml, Captopril 0.5 mg/ml, 10 mg/ml LLC, 400 mM Citrate pH 3.5, 150 mM NaCl], Mean PK Values (average of individual PK parameters), read-out: Half-Life): 19.4 min
- Tmax (3 mg, pH 3.5, ID 0.3 ml C [10 mg/ml, Captopril 0.5 mg/ml, 10 mg/ml LLC, 400 mM Citrate pH 3.5, 150 mM NaCl], Mean PK Values (average of individual PK parameters), read-out: Tmax (converted)): 7.1 min
- Tmax (3 mg, pH 3.5, ID 0.3 ml C [10 mg/ml, Captopril 0.5 mg/ml, 10 mg/ml LLC, 400 mM Citrate pH 3.5, 150 mM NaCl], individual rats, read-out: Tmax (converted)): 5 min
- AUC(0-t) [6]: 157 ng·h/mL
- Cmax [6]: 619 ng/mL
- Half-Life (3 mg, pH 3.5, ID 0.3 ml C [10 mg/ml, Captopril 5 mg/ml, 10 mg/ml LLC, 400 mM Citrate pH 3.5, 150 mM NaCl], Average (PK value of the mean concentrations), read-out: Half-Life): 13 min
- Tmax (3 mg, pH 3.5, ID 0.3 ml C [10 mg/ml, Captopril 5 mg/ml, 10 mg/ml LLC, 400 mM Citrate pH 3.5, 150 mM NaCl], Average (PK value of the mean concentrations), read-out: Tmax (converted)): 5 min
- AUC(0-t) [7]: 156 ng·h/mL
- Cmax [7]: 640 ng/mL
- Half-Life (3 mg, pH 3.5, ID 0.3 ml C [10 mg/ml, Captopril 5 mg/ml, 10 mg/ml LLC, 400 mM Citrate pH 3.5, 150 mM NaCl], Mean PK Value (average of individual PK parameters), read-out: Half-Life): 14.1 min
- Tmax (3 mg, pH 3.5, ID 0.3 ml C [10 mg/ml, Captopril 5 mg/ml, 10 mg/ml LLC, 400 mM Citrate pH 3.5, 150 mM NaCl], Mean PK Value (average of individual PK parameters), read-out: Tmax (converted)): 5.8 min
- Tmax (3 mg, pH 3.5, ID 0.3 ml C [10 mg/ml, Captopril 5 mg/ml, 10 mg/ml LLC, 400 mM Citrate pH 3.5, 150 mM NaCl], individual rats, read-out: Tmax (converted)): 5 min
- Half-Life (3 mg, pH 3.5, ID, 0.3 mL of 10 mg/mL A(1-7) with 10 mg/mL LLC, 400 mM Citrate, 150 mM NaCl pH 3.5, range over the group, read-out: Half-lives): 9.3 to 173 min
- Tmax (3 mg, pH 3.5, ID, 0.3 mL of 10 mg/mL A(1-7) with 10 mg/mL LLC, 400 mM Citrate, 150 mM NaCl pH 3.5, range over the group, read-out: Tmax after administration): 5 to 10 min
- Half-Life (pH 3.5, ID, 0.3 mL of 10 mg/mL A(1-7) with 0.5 mg/mL captopril, 10 mg/mL LLC, 400 mM Citrate, 150 mM NaCl pH 3.5, seven rats (Table 4), range over the group, read-out: Half-lives): 11.9 to 29.1 min
- Half-Life (ID, 0.3 mL of 10 mg/mL A(1-7) with 0.5 mg/mL captopril (as printed in the text on Table 5), 10 mg/mL LLC, 400 mM Citrate, 150 mM NaCl pH 3.5, six rats, range over the group, read-out: Half-lives): 7.97 to 25.6 min
- Tmax (ID, 0.3 mL of 10 mg/mL A(1-7) with 0.5 mg/mL captopril, 10 mg/mL LLC, 400 mM Citrate, 150 mM NaCl pH 3.5, seven rats (Table 4), range over the group, read-out: Tmax after administration): 5 to 10 min
- level at 5 min [8]: 628 ng/mL
- level at 10 min [8]: 233 ng/mL
- level at 20 min [8]: 129 ng/mL
- level at 40 min [8]: 13.9 ng/mL
- level at 1 h [8]: 14.4 ng/mL
- level at 1.5 h [8]: 7.74 ng/mL
- level at 5 min [9]: 619 ng/mL
- level at 10 min [9]: 424 ng/mL
- level at 20 min [9]: 138 ng/mL
- level at 40 min [9]: 24.1 ng/mL
- level at 1 h [9]: 19.2 ng/mL
- level at 1.5 h [9]: 5.83 ng/mL
Structure (SMILES): CC[C@H](C)[C@H](NC(=O)[C@H](Cc1ccc(O)cc1)NC(=O)[C@@H](NC(=O)[C@H](CCCNC(=N)N)NC(=O)[C@@H](N)CC(=O)O)C(C)C)C(=O)N[C@@H](Cc1c[nH]cn1)C(=O)N1CCC[C@H]1C(=O)O [Angiotensin (1-7), Asp^1-Arg^2-Val^3-Tyr^4-Ile^5-His^6-Pro^7]
